# Laboratory results reported in PMC7997574, “Lead Optimization of Benzoxazolone Carboxamides as Orally Bioavailable and CNS Penetrant Acid Ceramidase Inhibitors” (Journal of Medicinal Chemistry, 2020).
# Where “and” joins values, the source holds several entries; their conditions need not be identical. Equal values may be shown once.
# How the values were obtained:
# [1] = In vivo pharmacokinetic study in male CD1 mice; details: mouse
# Experimental: Male CD1 mice (22–24 g, 6 weeks old, SLAC Laboratory Animal Co. Ltd.) were group-housed in ventilated cages and had free access to water and food. They were maintained under a […] at controlled temperature and relative humidity. All efforts were made to minimize animal suffering and to use the minimal number of animals required to produce reliable results. All procedures were performed in accordance with the Ethical Guidelines on the Protection of Animals Used for Scientific Purposes at the DMPK Group at Shanghai ChemPartner Co., Ltd. 22m was administrated intravenously (i.v.) at 3 mg kg^–1 (vehicle: 100% saline at 0.6 mg mL^–1) via tail vein injection (N = 18) and via oral administration (p.o.) at 10 mg kg^–1 (vehicle: 100% saline at 2.0 mg mL^–1) by oral gavage (N = 18). Sample collection. Samples were collected at 0.25, 0.5, 1, 4, 8, and 24 h. Animals were sacrificed 24 h after 22m administration; plasma, brain, and CSF samples were collected and stored at −80 °C. Blood collection: The animal was restrained manually, and approximately 150 μL of blood/time point was collected into the K2EDTA tube via retro orbital puncture under anesthesia with isoflurane. The blood sample was put on ice and centrifuged to obtain the plasma sample (2000 × g, 5 min under 4 °C) within 15 min and then acidified following 100 μL of plasma + 1.0 μL of formic acid. An aliquot of 20 μL sample (pretreatment with 1% formic acid) was added with 200 μL of IS (propranolol, 40 ng mL^–1) in MeCN. The mixture was vortexed for 5 min and centrifuged at 6000 rpm for 10 min. The 0.5 μL mixture was injected into LC/MS/MS. Brain collection: Brain was removed and immediately homogenized immediately for 2 min with three volumes (v/w) of homogenizing solution (PBS:formic acid = 100:1), and then the solution was stored in tubes under −70 °C until analysis. An aliquot of 20 μL sample was added with 200 μL of MeCN, which contains IS (propranolol, 40 ng mL^–1) for protein precipitation. The mixture was vortexed for 5 min and centrifuged at 6000 rpm for 10 min. The 0.5 μL mixture was injected into LC/MS/MS. CSF collection: A midline incision was made on the neck. The muscle under the skin was cut to expose the cisterna magna. The CSF was collected by capillary. An aliquot of 3 μL sample was added with 90 μL of IS (propranolol, 40 ng mL^–1) in MeCN:H2O = 2:1 (added 1% formic acid). The mixture was vortexed for 5 min and centrifuged at 6000 rpm for 10 min. The 1.5 μL mixture was injected into LC/MS/MS. 22m sample levels were monitored on an LC/MS/MS-19 (API5500, Qtriple) system, using the calibration curve and […] as internal standard. Chromatography was carried out on a Waters BEH C18 column (2.1 × 50 mm, 1.7 μm) at 60 °C, setting a flow rate of 0.60 mL min^–1. Mobile phases were as follows: A = H2O/0.025% formic acid/1 mM NH4OAc and B = MeOH/0.025% formic acid/1 mM NH4OAc. After the initial 0.20 min at 10% of mobile phase B, the percentage of mobile phase B increased at 70% at 0.50 min, reaching steadily 90% in the range of 0.80–1.30 min. Then the system returned to the initial conditions in a single step until 1.80 min. The following parent (m/z)/daughter (m/z) transitions were monitored: 22m: m/z = 332.20/[…] Da; […] (IS): m/z: 260.30/116.10 Da.
# AC = target: T1, AC (Homo sapiens, UniProt Q13510); experiment: Kinetic studies on hAC-enriched lysates (Michaelis–Menten analysis, ki/KI); format: biochemical; design: expressed in transfected cells; details: time-dependent inhibition of hAC
# T1 sequence (Q13510 22-395): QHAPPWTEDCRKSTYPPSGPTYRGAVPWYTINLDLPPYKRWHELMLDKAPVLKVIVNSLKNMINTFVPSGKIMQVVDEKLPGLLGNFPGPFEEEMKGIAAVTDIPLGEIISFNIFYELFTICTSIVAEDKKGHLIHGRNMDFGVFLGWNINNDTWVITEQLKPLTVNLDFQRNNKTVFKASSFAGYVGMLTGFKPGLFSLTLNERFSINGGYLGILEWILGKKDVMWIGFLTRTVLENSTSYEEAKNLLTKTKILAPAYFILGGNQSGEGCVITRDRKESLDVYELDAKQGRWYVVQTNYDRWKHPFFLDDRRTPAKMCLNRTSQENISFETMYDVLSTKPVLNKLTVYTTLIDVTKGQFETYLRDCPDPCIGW
# Experimental: Assay conditions for the kinetic studies were the same as those described for the fluorogenic hAC assay. Enzyme-enriched lysate (2 μg) was incubated with the following concentrations of substrate Rbm14–12: 0.25, 0.5, 1, 2.5, 5, 10, 12.5, and 15 μM. Compound 22m was used at final concentrations of 100 and 400 nM. Initial velocities (V0) were determined and automatically fitted to the Michaelis–Menten equation to obtain the kinetic parameters (KM and Vmax). The graph is representative of two independent experiments, each performed in three technical replicates. Graphs and data analysis were performed using GraphPad Prism 5 software (GraphPad Software Inc., CA, USA).
# hAC activity was measured as a function of reaction time in the presence of different concentrations of 22m. The apparent inactivation rate constant of hAC (kobs) was analyzed by nonlinear square fitting each data set to the pseudo-first-order rate equation Y = vi(1 – exp(−kobst))/kobs. Replotting of calculated kobs vs [22m] was made, and the kinetic parameter ki/KI was calculated by nonlinear square fitting data to the equation Y = kiI/(KI + I). The graphs are representative of two independent experiments, each performed in two technical replicates.
# [2] = plasma, oral bioavailability, 10 mg kg^–1 p.o.
compound,measurement,setting,value
"CC(C)CNC(=O)n1c(=O)oc2cc(C3CCN(C)CC3)ccc21 [22m, N-Isobutyl-6-(1-methyl-4-piperidyl)-2-oxo-1,3-benzoxazole-3-carboxamide]",AUC at 24 h,"[1]; iv, CSF, 3 mg kg^–1 i.v.",77.8 ng·h/mL
same,Cmax at 24 h,"[1]; iv, CSF, 3 mg kg^–1 i.v.",71.6 ng/mL
same,Tmax,"[1]; iv, CSF, 3 mg kg^–1 i.v.",0.25 h
same,half-life at 24 h,"[1]; iv, CSF, 3 mg kg^–1 i.v.",0.661 h
same,AUC at 24 h,"[1]; iv, brain, 3 mg kg^–1 i.v.",10100 ng·h/mL
same,Cmax at 24 h,"[1]; iv, brain, 3 mg kg^–1 i.v.",6440 ng/mL
same,Tmax,"[1]; iv, brain, 3 mg kg^–1 i.v.",0.25 h
same,half-life at 24 h,"[1]; iv, brain, 3 mg kg^–1 i.v.",1.01 h
same,AUC at 24 h,"[1]; iv, plasma, 3 mg kg^–1 i.v.",212 ng·h/mL
same,half-life,"[1]; iv, plasma, 3 mg kg^–1 i.v.",1 h
same,half-life at 24 h,"[1]; iv, plasma, 3 mg kg^–1 i.v.",1.26 h
same,clearance at 24 h,"[1]; iv, plasma, 3 mg kg^–1 i.v., read-out: Cl (L h^–1 kg^–1) (converted)",235 mL/min/kg
same,Vd at 24 h,"[1]; iv, plasma, 3 mg kg^–1 i.v., read-out: Vdss (L kg^–1)",12.5 L/kg
same,bioavailability,[1]; [2],58%
same,bioavailability at 24 h,[1]; [2],58.3%
same,AUC at 24 h,"[1]; po, CSF, 10 mg kg^–1 p.o.",119 ng·h/mL
same,Cmax at 24 h,"[1]; po, CSF, 10 mg kg^–1 p.o.",52.2 ng/mL
same,Tmax,"[1]; po, CSF, 10 mg kg^–1 p.o.",1 h
same,half-life at 24 h,"[1]; po, CSF, 10 mg kg^–1 p.o.",1.23 h
same,AUC at 24 h,"[1]; po, brain, 10 mg kg^–1 p.o.",14600 ng·h/mL
same,Cmax at 24 h,"[1]; po, brain, 10 mg kg^–1 p.o.",6900 ng/mL
same,Tmax,"[1]; po, brain, 10 mg kg^–1 p.o.",1 h
same,half-life at 24 h,"[1]; po, brain, 10 mg kg^–1 p.o.",1.18 h
same,AUC at 24 h,"[1]; po, plasma, 10 mg kg^–1 p.o.",412 ng·h/mL
same,Cmax at 24 h,"[1]; po, plasma, 10 mg kg^–1 p.o.",216 ng/mL
same,Tmax at 24 h,"[1]; po, plasma, 10 mg kg^–1 p.o.",0.5 h
same,half-life at 24 h,"[1]; po, plasma, 10 mg kg^–1 p.o.",1.03 h
same,ki,AC,0.15 min^–1
same,ki/KI,AC,0.02 μM^–1 min^–1 and 0.02±0.001 μM^–1 min^–1
